Where “and” joins values, the source holds several entries; their conditions need not be identical. Identical values can stand only once. Records with an inconclusive call do not appear.
Test system: BDF1 mice, B16 melanoma s.c., survival/tumor T/C
Assay: NCI In Vivo Anticancer Drug Screen. Data for tumor model B16 Melanoma (subcutaneous) in B6D2F1 (BDF1) mice
Protocol: The antitumor activity of compounds was measured in mice bearing transplantable tumors. Survival or tumor size were measured and the results are expressed as the measurement made in the treated group (T) divided by the measurement made in the vehicle treated control group (C). The tumor model used in this assay is B16 Melanoma (subcutaneous) in B6D2F1 (BDF1) mice

With `COC1/C=C\C=C(/C)C(=O)NC2=CC(=O)C(=O)C(=C2O)CC(C)CC(OC)C(O)C(C)/C=C(\C)C1OC(N)=O` (centres undefined) the T/C (endpoint: median survival time, dose: 0.78 mg/kg/injection, schedule: Q01DX005 (ip), vehicle: other, higher = longer survival) was 88 % of control, the T/C (endpoint: median survival time, dose: 3.13 mg/kg/injection, schedule: Q01DX005 (ip), vehicle: other, higher = longer survival) was 114 % of control and the T/C (endpoint: median survival time, dose: 6.25 mg/kg/injection, schedule: Q01DX005 (ip), vehicle: other, higher = longer survival) was 105 % of control.

With `CCCCS(=N)(=O)CC[C@H](N)C(=O)O` (some centres undefined) the T/C (endpoint: median survival time, dose: 444.0 mg/kg/injection, schedule: Q04HX003 (ip), vehicle: saline, higher = longer survival) was 104 % of control, the T/C (endpoint: median survival time, dose: 888.0 mg/kg/injection, schedule: Q04HX003 (ip), vehicle: saline, higher = longer survival) was 100 % of control and the T/C (endpoint: median survival time, dose: 1776.0 mg/kg/injection, schedule: Q04HX003 (ip), vehicle: saline, higher = longer survival) was 102 % of control.

For `O=NN(CCF)C(=O)NCCO`, the T/C (endpoint: median survival time, dose: 3.11 mg/kg/injection, schedule: Q01DX007 (ip), vehicle: water, higher = longer survival) was 98 % of control, the T/C (endpoint: median survival time, dose: 5.18 mg/kg/injection, schedule: Q01DX007 (ip), vehicle: water, higher = longer survival) was 112 % of control and the T/C (endpoint: median survival time, dose: 8.64 mg/kg/injection, schedule: Q01DX007 (ip), vehicle: water, higher = longer survival) was 123 % of control.

For `O=C1c2c(O)ccc(O)c2C(=O)c2c(NCCNCCO)ccc(NCCNCCO)c21`, the T/C (endpoint: median survival time, dose: 0.25 mg/kg/injection, schedule: Q01DX009 (ip), vehicle: other, higher = longer survival) was 102 % of control, the T/C (endpoint: median survival time, dose: 0.5 mg/kg/injection, schedule: Q01DX009 (ip), vehicle: other, higher = longer survival) was 89 % of control and the T/C (endpoint: median survival time, dose: 0.5 mg/kg/injection, schedule: Q01DX009 (ip), vehicle: saline with Tween-80, higher = longer survival) was 120 % of control. The T/C (endpoint: median survival time, dose: 1.0 mg/kg/injection, schedule: Q01DX009 (ip), vehicle: other, higher = longer survival) was 106 % of control, the T/C (endpoint: median survival time, dose: 2.0 mg/kg/injection, schedule: Q01DX009 (ip), vehicle: other, higher = longer survival) was 90 % of control and the T/C (endpoint: median survival time, dose: 2.0 mg/kg/injection, schedule: Q01DX009 (ip), vehicle: saline with Tween-80, higher = longer survival) was 102 % of control and 123 % of control.

`ClCC[N-]CC[N-]CCCl.ClCC[N-]CC[N-]CCCl.[O-][Cl+3]([O-])([O-])O.[Zn+2]` was tested, and the T/C (endpoint: median survival time, dose: 2.5 mg/kg/injection, schedule: Q01DX009 (ip), vehicle: saline with Tween-80, higher = longer survival) was 102 % of control, the T/C (endpoint: median survival time, dose: 5.0 mg/kg/injection, schedule: Q01DX009 (ip), vehicle: saline with Tween-80, higher = longer survival) was 94 % of control and the T/C (endpoint: median survival time, dose: 10.0 mg/kg/injection, schedule: Q01DX009 (ip), vehicle: saline with Tween-80, higher = longer survival) was 115 % of control. For the same compound, the T/C (endpoint: median survival time, dose: 20.0 mg/kg/injection, schedule: Q01DX009 (ip), vehicle: saline with Tween-80, higher = longer survival) was 89 % of control.

For `O=C1C(=O)c2ccccc2C(O)=C1CC=C(Cl)Cl`, the T/C (endpoint: median survival time, dose: 8.0 mg/kg/injection, schedule: Q01DX009 (ip), vehicle: saline + alcohol, higher = longer survival) was 87 % of control, the T/C (endpoint: median survival time, dose: 16.0 mg/kg/injection, schedule: Q01DX009 (ip), vehicle: saline + alcohol, higher = longer survival) was 109 % of control and the T/C (endpoint: median survival time, dose: 32.0 mg/kg/injection, schedule: Q01DX009 (ip), vehicle: saline + alcohol, higher = longer survival) was 77 % of control. The T/C (endpoint: median tumor weight (est.), dose: 12.5 mg/kg/injection, schedule: Q01DX009 (ip), vehicle: Klucel (hydroxypropylcellulose) (HPC), higher = larger tumour) was 94 % of control and 104 % of control and 108 % of control and the T/C (endpoint: median tumor weight (est.), dose: 50.0 mg/kg/injection, schedule: Q01DX009 (ip), vehicle: Klucel (hydroxypropylcellulose) (HPC), higher = larger tumour) was 53 % of control and 55 % of control and 64 % of control.

For `N=[N+]=CC(=O)CCC(NC(=O)C(CCC(=O)C=[N+]=N)NC(=O)CCC(N)C(=O)O)C(=O)O` (centres undefined), the T/C (endpoint: median survival time, dose: 0.1 mg/kg/injection, schedule: Q01DX009 (ip), vehicle: saline, higher = longer survival) was 95 % of control, the T/C (endpoint: median survival time, dose: 0.2 mg/kg/injection, schedule: Q01DX009 (ip), vehicle: saline, higher = longer survival) was 95 % of control and the T/C (endpoint: median survival time, dose: 0.4 mg/kg/injection, schedule: Q01DX009 (ip), vehicle: saline, higher = longer survival) was 94 % of control. For the same compound, the T/C (endpoint: median survival time, dose: 0.8 mg/kg/injection, schedule: Q01DX009 (ip), vehicle: saline, higher = longer survival) was 91 % of control, the T/C (endpoint: median survival time, dose: 1.6 mg/kg/injection, schedule: Q01DX009 (ip), vehicle: saline, higher = longer survival) was 98 % of control and the T/C (endpoint: median survival time, dose: 12.5 micrograms/kg/injection, schedule: Q01DX009 (ip), vehicle: saline, higher = longer survival) was 113 % of control. The T/C (endpoint: median survival time, dose: 25.0 micrograms/kg/injection, schedule: Q01DX009 (ip), vehicle: saline, higher = longer survival) was 117 % of control, the T/C (endpoint: median survival time, dose: 50.0 micrograms/kg/injection, schedule: Q01DX009 (ip), vehicle: saline, higher = longer survival) was 97 % of control and the T/C (endpoint: median survival time, dose: 100.0 micrograms/kg/injection, schedule: Q01DX009 (ip), vehicle: saline, higher = longer survival) was 102 % of control. The T/C (endpoint: median tumor weight (est.), dose: 0.2 mg/kg/injection, schedule: Q01DX009 (ip), vehicle: saline, higher = larger tumour) was 86 % of control.

Reference: PubChem BioAssay AID194 (DTP/NCI, 2004)
